# Paper PMC10223877, “Impacts of PEGylation and Glycosylation on the Biological Properties of Host Defense Peptide IDR1018” (Pharmaceutics, 2023)
# Ends that are not written are not given here. Peptide text beside a SMILES is read from it. * marks the point of attachment. X1 = CC(=O)N[C@H]1C(*)O[C@H](CO)[C@@H](O)[C@@H]1O; X2 = O=C(CCOCCOCCOCCOCCOCCOCCO)*
# Experiments:
# A. baumannii 5015 [1] = test: Biofilm eradication assay (MBEC), preformed biofilms; format: cell-based; settings: preformed A. baumannii 5015 biofilm, LB + 1% glucose; viable biofilm cell count; three independent experiments
# Description: (§2) A bacterial suspension of 1 × 10^7 CFU mL^−1 was used to establish biofilms prior to treatment with the peptides. Appropriate nutrient media for optimal biofilm formation were used, including TSB supplemented with 1% glucose for MRSA SAP0017, BM2 glucose for P. aeruginosa PA14, and LB media supplemented with 1% glucose for E. coli ATTC489 and A. baumannii 5015. In the crystal violet-based assay, untreated bacterial culture and sterile media were used as positive and negative controls, where the % of biofilm biomass was considered 100 and 0%, respectively. The % of biomass in the treated samples was determined relative to the positive and negative controls. A biofilm eradication assay [17] was also performed, for which the residual viable biofilm cell count (CFU mL^−1) was determined. Experiments were conducted in triplicate, in three independent experiments, and average values were presented with ± standard deviations.
# [2] = system: MRSA SAP0017, P. aeruginosa PA14, E. coli ATTC489, A. baumannii 5015; test: MIC, summary over the strains tested; format: cell-based; settings: range over the four strains of Table 2
# Description: (§1) The MIC was conducted using the liquid broth inhibition assay as previously described. MHB was used as a medium for bacterial growth, and bacteria (either MRSA SAP0017, P. aeruginosa PA14, E. coli ATTC489 or A. baumannii 5015) were suspended at ∼1 × 10^6 CFU mL^−1. The peptide conjugates were incubated with the bacterial cultures at various concentrations for ~18 h prior determination of bacterial growth optical density at 600 nm (OD600). The MIC was defined as the lowest concentration that led to no growth in the wells. All values are modal values of three independent experiments.
# S. aureus MRSA0017 [3] = test: Biofilm eradication assay (MBEC), preformed biofilms; format: cell-based; settings: TSB + 1% glucose, viable biofilm cell count, three independent experiments
# Description: as §2
# E. coli ATTC489 [4] = test: as above; format: cell-based; settings: LB + 1% glucose, viable biofilm cell count, three independent experiments
# Description: as §2
# P. aeruginosa PA14 [5] = test: as above; format: cell-based; settings: BM2 glucose, viable biofilm cell count, three independent experiments
# Description: as §2
# S. aureus MRSA0017 [6] = test: MIC, liquid broth inhibition assay; format: cell-based; settings: planktonic S. aureus MRSA0017; MHB, ~1 × 10^6 CFU mL^−1, ~18 h, OD600; modal values of three independent experiments
# Description: as §1
# P. aeruginosa PA14 [7] = test: MIC, liquid broth inhibition assay; format: cell-based; settings: planktonic P. aeruginosa PA14; MHB, ~1 × 10^6 CFU mL^−1, ~18 h, OD600; modal values of three independent experiments
# Description: as §1
# E. coli ATTC489 [8] = test: MIC, liquid broth inhibition assay; format: cell-based; settings: planktonic E. coli ATTC489; MHB, ~1 × 10^6 CFU mL^−1, ~18 h, OD600; modal values of three independent experiments
# Description: as §1
# A. baumannii 5015 [9] = test: MIC, liquid broth inhibition assay; format: cell-based; settings: planktonic A. baumannii 5015; MHB, ~1 × 10^6 CFU mL^−1, ~18 h, OD600; modal values of three independent experiments
# Description: as §1
# [10] = at 128 µg mL^−1; LDH release, 24 h, 37 °C, RPMI + 10% FBS; 1% Triton X-100 = 100%
# Description: The cytotoxicity of the conjugates was assessed in vitro against PBMCs as described earlier using the lactate dehydrogenase (LDH)-based assay [35]. Blood samples were collected from healthy donors with ethics approval and PBMCs were isolated following our previously reported protocol [35]. The cells were resuspended in RPMI medium supplemented with 10% FBS and seeded in tissue culture-treated plates at a final density of 1 × 10^5 cells well^−1. Subsequently, the cells were treated with the conjugates or IDR1018 and incubated for 24 h at 37 °C in 5% CO2, to determine the LDH release. Triton X-100 (1% final concentration) was used as a toxic (positive) control.
# MCP-1 = test: Immunomodulatory assay, ELISA of PBMC supernatant; format: cell-based, human; settings: PBMCs, peptide 8 μg mL^−1 co-treated with 20 ng mL^−1 P. aeruginosa LPS, 24 h
# Description: (§3) To evaluate the capacity of the conjugates to modulate the immune system, suspended PBMCs (a final density of 1 × 10^5 cells well^−1) were treated with the conjugates at 8 μg mL^−1 in the presence or absence of 20 ng mL^−1 P. aeruginosa LPS, incubated for 24 h, centrifuged, and then the supernatants were collected to quantifying the levels of monocyte chemoattractant protein 1 (MCP-1), the tumor necrosis factor-alpha (TNFα), and interleukins (IL) IL-1β, IL-10, and the anti-inflammatory IL-1 receptor antagonist (IL-1RA) using specific ELISA assays (ELISA kits, eBioscience, Carlsbad, CA, USA). All experiments were conducted in triplicate in three independent experiments and average values were presented.
# IL-10 = test: Immunomodulatory assay, ELISA of PBMC supernatant; format: cell-based, human; settings: PBMCs, peptide 8 μg mL^−1 co-treated with 20 ng mL^−1 P. aeruginosa LPS, 24 h
# Description: as §3
# [11] = Aggregation with PBMCs in tissue culture, microscopy; format: physicochemical, human; settings: 32 μg mL^−1, PBMCs in RPMI, 4 h, 37 °C, 5% CO2, microscopy; triplicate in three independent experiments
# Description: Furthermore, isolated peripheral blood mononuclear cells (PBMCs) seeded in 96-well flat-bottom tissue culture plates (Corning Inc., Corning, NY, USA) at a concentration of 2 × 10^6 in RMPI media were treated with the two conjugates at a final concentration of 32 μg mL^−1, incubated for 4 h at 37 °C in 5% CO2, and visualized on a Nikon Eclipse TS100 microscope. Experiments were performed in triplicate in three independent experiments.
# IL-1RA = test: Immunomodulatory assay, ELISA of PBMC supernatant; format: cell-based, human; settings: PBMCs
# Description: as §3
# S. aureus MRSA0017 [12] = test: Biofilm biomass, crystal violet staining assay; format: cell-based; settings: at 64 µg mL^−1, relative to untreated samples
# Description: as §2
# human PBMCs = test: Immunomodulatory assay, chemokine and cytokine expression overall; format: cell-based
# Description: as §3
# [13] = Aggregation assay (turbidity) in sodium citrate or phosphate; format: physicochemical; settings: sodium citrate and sodium phosphate, 0.1−1000 mM; OD600 relative to sterile water
# Description: Solutions of IDR1018 peptide and the conjugates were tested for aggregation in saline (0.9% NaCl), 5% dextrose, and 10% RPMI tissue culture medium at 1 mg mL^−1. The solutions were placed in 96 well plates and sterile water was used as a negative control. The turbidity was determined for each sample as described in earlier reports. Similarly, the conjugates were screened for aggregation in the presence of sodium salts of polyatomic anions (citrate or phosphate) at various strengths (0.1−1000 mM). The % of aggregates was assessed relative to the OD600 of sterile water.
# IL-1β = test: Immunomodulatory assay, ELISA of PBMC supernatant; format: cell-based, human; settings: PBMCs, peptide 8 μg mL^−1 co-treated with 20 ng mL^−1 P. aeruginosa LPS, 24 h
# Description: as §3
Compound,MBEC (minimal biofilm eradication concentration) (A. baumannii 5015 [1]) [µg/mL],"MICs, range based on the strains tested [2] [µg/mL]",MBEC (minimal biofilm eradication concentration) (S. aureus MRSA0017 [3]) [µg/mL],MBEC (minimal biofilm eradication concentration) (E. coli ATTC489 [4]) [µg/mL],MBEC (minimal biofilm eradication concentration) (P. aeruginosa PA14 [5]) [µg/mL],MIC (S. aureus MRSA0017 [6]) [mg/L],MIC (P. aeruginosa PA14 [7]) [mg/L],MIC (E. coli ATTC489 [8]) [mg/L],MIC (A. baumannii 5015 [9]) [mg/L],cytotoxicity to PBMCs [10],MCP1 induction level with LPS stimulation (MCP-1),IL-10 induction level with LPS stimulation (IL-10),aggregation when incubated with PBMCs in tissue culture [11],"level of IL-1RA induced (IL-1RA; peptide 8 μg mL^−1, 24 h, absence of LPS, mean of three independent experiments) [ng/mL]","IL-1RA induction level with LPS stimulation (IL-1RA; peptide 8 μg mL^−1 co-treated with 20 ng mL^−1 P. aeruginosa LPS, 24 h)",biomass reduction (S. aureus MRSA0017 [12]) [%],"boost of the level of MCP1 and IL-1RA relative to unmodified IDR1018 (human PBMCs; peptide 8 μg mL^−1, absence of LPS)","ability to modulate chemokine and cytokine expression (human PBMCs; peptide 8 μg mL^−1, absence of an LPS stimulant)",turbidity in sodium salts of polyatomic anions [13],expression of IL-1β with LPS stimulation (IL-1β)
CC[C@H](C)[C@H](NC(=O)[C@H](CCCNC(=N)N)NC(=O)[C@@H](NC(=O)[C@H](C)NC(=O)[C@@H](NC(=O)[C@@H](NC(=O)[C@H](CC(C)C)NC(=O)[C@H](CCCNC(=N)N)NC(=O)[C@@H](NC(=O)CCOCCOCCOCCOCCOCCOCCO)C(C)C)[C@@H](C)CC)C(C)C)C(C)C)C(=O)N[C@@H](Cc1c[nH]c2ccccc12)C(=O)N[C@@H](CCCNC(=N)N)C(=O)N[C@@H](CCCNC(=N)N)C(N)=O [PEG6-IDR1018] (X2-VRLIVAVRIWRR-NH2),128,32 to 64,64,128,256,32,64,64,64,–,–,–,–,–,–,–,–,–,–,–
VRLIVAVRIWRR-NH2 [IDR1018],16,–,–,16,16,16,16,16,16,up to 20%,–,–,–,–,–,–,–,–,–,–
CC[C@H](C)[C@H](NC(=O)[C@H](CCCNC(=N)N)NC(=O)[C@@H](NC(=O)[C@H](C)NC(=O)[C@@H](NC(=O)[C@@H](NC(=O)[C@H](CC(C)C)NC(=O)[C@H](CCCNC(=N)N)NC(=O)[C@@H](NC(=O)[C@@H](N)[C@@H](C)OC1O[C@H](CO)[C@@H](O)[C@H](O)[C@H]1NC(C)=O)C(C)C)[C@@H](C)CC)C(C)C)C(C)C)C(=O)N[C@@H](Cc1c[nH]c2ccccc12)C(=O)N[C@@H](CCCNC(=N)N)C(=O)N[C@@H](CCCNC(=N)N)C(N)=O (stereo partly drawn) [Glc-IDR1018] (H-T(X1)VRLIVAVRIWRR-NH2),256,64 to 128,64,128,256,64,128,64,64,–,substantially higher expression values,substantially higher expression values,"neither peptide conjugate, PEG6-IDR1018, and Glc-IDR1018 showed any obvious sign of aggregation",0.8,substantially higher expression values,≥ 90,2–5 fold,significant increase in the expression of the immune mediators relative to unmodified IDR1018,no turbidity increase,significantly suppressed
